Values after ≈ are worked out from the molar mass of the structure shown.
Legend:
[1] = Human liver microsomal Clint; type: in vitro ADME; settings: for microsomal CLint: read-out: HLM Clint
[2] = Aqueous pH 7.4 solubility; type: physicochemical; settings: for solubility: aqueous buffer, thermodynamic from solid, phosphate buffer pH 7.4, 25 °C, 20-24 h, read-out: aq sol (aqueous solubility)
Rat hepatocyte Clint = type: in vitro ADME; settings: rat hepatocytes, intrinsic clearance; for hepatocyte CLint: read-out: RH CLint
[3] = Human plasma protein binding (equilibrium dialysis); type: in vitro ADME; settings: read-out: human PPB (plasma protein binding) (converted); for fraction unbound at 10 µM: pH 7.4, 37 °C; for fraction unbound: pH 7.4, 10 µM, 37 °C
adult S. mansoni = test: Phenotypic screen of adult S. mansoni worms, severity scores and descriptors; type: cell-based, Schistosoma mansoni; settings: for Descriptors (10 µM) 1 h / Severity Scores (10 μM) 1 h / Descriptors (10 µM) 5 h / Severity Scores (10 μM) 5 h / Descriptors (10 µM) 24 h / Severity Scores (10 μM) 24 h / Descriptors (10 µM) 48 h / Severity Scores (10 μM) 48 h: adult S. mansoni; for Descriptors (10 µM) 1 h / Descriptors (10 µM) 5 h / Descriptors (10 µM) 24 h / Descriptors (10 µM) 48 h: phenotypic descriptors; for Severity Scores (10 μM) 1 h / Severity Scores (10 μM) 5 h / Severity Scores (10 μM) 24 h / Severity Scores (10 μM) 48 h: scale 0 (no activity) to 4 (maximal activity); for bioactivity against adult S. mansoni: adult schistosomes; for Severity Scores (10 μM) 1 h / Severity Scores (10 μM) 5 h / Severity Scores (10 μM) 24 h / Severity Scores (10 μM) 48 h / bioactivity against adult S. mansoni: 10 μM
How it was run: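 Adult S. mansoni (NMRI isolate, ≥42 days old) were co-incubated with compounds and changes in motility, density, shape and adherence recorded visually over time and concentration. Descriptors converted to severity scores from 0 (no activity) to 4 (maximal).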

[4] = Log D7.4 shake-flask octanol-water; type: physicochemical; settings: pH 7.4
HepG2 cells = test: Drug toxicity to HepG2 cells (MTT); type: cell-based; settings: HepG2 cells, 48 hours incubation, MTT
[5] = human liver microsomes, intrinsic clearance

Structure (SMILES) | microsomal CLint [1, 5] [µL/min/mg] | solubility [2] [µM] | hepatocyte CLint (Rat hepatocyte Clint) [µL/min/1e6 cells] | fraction unbound at 10 µM [3] | Descriptors (10 µM) 1 h (adult S. mansoni) | Severity Scores (10 μM) 1 h (adult S. mansoni) | Descriptors (10 µM) 5 h (adult S. mansoni) | Severity Scores (10 μM) 5 h (adult S. mansoni) | Descriptors (10 µM) 24 h (adult S. mansoni) | Severity Scores (10 μM) 24 h (adult S. mansoni) | Descriptors (10 µM) 48 h (adult S. mansoni) | Severity Scores (10 μM) 48 h (adult S. mansoni) | bioactivity against adult S. mansoni (adult S. mansoni) | logD [4] | further results
c1cnc(Nc2ccnc3cc(-c4cnc(N5CCCNCC5)nc4)ccc23)cn1 [4g] | 19 | 53 (≈ 21.1 µg/mL) | 4 | 0.37 | none | 0 | none | 0 | none | 0 | none | 0 | bioactivity of this series was not observed | 1.8 | 
COc1ccc(Nc2ccnc3cc(-c4ccc(S(=O)(=O)N5CCCN(C)CC5)cc4)ccc23)cc1Cl [5e] | 300 | 0.3 (≈ 0.161 µg/mL) | 15 | 0.01 | none | 0 | none | 0 | none | 0 | none | 0 | complete loss of bioactivity | 4.4 | 
COc1ccc(NC(=O)c2ccc(-c3ccc(S(=O)(=O)N4CCN(C)CC4)cc3)cc2O)cc1Cl [7c] | 62 | 6 (≈ 3.1 µg/mL) | 300 | < 0.01 | none | 0 |  | 3 |  | 2 |  |  | phenotypic response after 5 h | 3.9 | 
Cc1ccc2[nH]c3c4ccc(-c5cnc(N6CCCN(C)CC6)nc5)cc4ncc3c2c1 [6c] | 130 | 14 (≈ 5.92 µg/mL) | 7 | < 0.01 |  | 3 |  | 4 |  | 4 |  | 4 | severe bioactivity after 1 h | 5 | 
Fc1cccc(COc2ccc(Nc3ncnc4ccc(-c5cccc(N6CCOCC6)c5)cc34)cc2Cl)c1 [compound 2] |  | < 1 |  | < 0.01 |  |  |  |  |  |  |  |  |  |  | HLM Clint [1, 5]: 63 μL/min/mg protein; RH CLint (Rat hepatocyte Clint): 44 µL/min/10^6 cells
CN1CCCN(c2ccc(Nc3ccc4c(Nc5cnccn5)ccnc4c3)cc2)CC1 [S3k] | 30 |  | 14 |  | none | 0 | none | 0 | S, on sides | 2 | S, on sides | 2 |  |  | HepG2 TC50 (HepG2 cells): 17 µM
CN1CCCN(S(=O)(=O)c2ccc(-c3ccc4c(Nc5ccc(Cl)cn5)ccnc4c3)cc2)CC1 [5f] | 300 | 4 (≈ 2.03 µg/mL) | 30 | < 0.01 |  | 2 | S, on sides | 2 | Dark, S | 2 | Dark, S | 2 | moderate bioactivity recorded after 1 h | 4.5 | 
COc1ccc(NC(=O)c2ccc(-c3cccc(N4CCOCC4)c3)cc2O)cc1Cl [7d] | 12 | 0.1 (≈ 0.0439 µg/mL) | 300 | < 0.01 | S, on sides | 2 | S, on sides | 2 | S, on sides, dark | 3 |  | 4 | phenotypic response after 1 h which increased in severity over time | 4.7 | 
Cc1cc2c(Nc3cnccn3)ccnc2cc1-c1cnc(N2CCCN(C)CC2)nc1 [8b] |  |  | 42 |  |  | 4 |  | 4 |  | 4 |  | 4 | severe phenotypic response recorded after 1 h | 2.5 | clearance increase compared to 8a ([1]; relative to 8a): 2 fold; improvement in solubility compared to 8a ([2]; relative to 8a): > 33,500 fold; fraction unbound [3]: 0.18
CN1CCCN(c2ncc(-c3ccc4c(Nc5ccncn5)ccnc4c3)cn2)CC1 [5c] | 74 | 930 (≈ 384 µg/mL) | 82 | 0.34 | none | 0 | none | 0 | none | 0 | none | 0 | complete loss in activity | 2.2 | 
Cc1cc2c(Nc3cnccn3)ccnc2cc1-c1cnc(N2CCCNCC2)nc1 [8e] |  |  | < 1 |  | none | 0 | none | 0 | none | 0 | none | 0 | inactive against schistosomes | 2.3 | improved metabolic stability in comparison to 8a ([1]; relative to 8a): 10 fold; fraction unbound [3]: 0.3
COc1ccc(NC(=O)c2ccc(-c3cccc(N4CCOCC4)c3)cc2N)cc1Cl [7e] | 59 | 0.6 (≈ 0.263 µg/mL) | 4.4 | < 0.01 | none | 0 | none | 0 | S, on sides | 2 |  | 2 | bioactivity after 24 h | 3.6 | 
COc1ccc(NC(=O)c2ccc(-c3cnc(N4CCN(C)CC4)nc3)cc2O)cc1Cl [7a] | 44 | 5 (≈ 2.27 µg/mL) | 300 | < 0.01 | none | 0 | none | 0 | none | 0 |  |  | complete loss of activity | 3.8 | 

Source: publication PMC7073886, “Structure–Bioactivity Relationships of Lapatinib Derived Analogs against Schistosoma mansoni” (ACS Medicinal Chemistry Letters, 2020)
